The results in this text go back to patent publication US20120294871A1, “MODULATION OF GPCR-MEDIATED CAMP PRODUCTION THROUGH LRP6 AND ITS THERAPEUTIC APPLICATION” (THE JOHNS HOPKINS UNIVERSITY, priority 2011, published 2012).

Where only a bound is given, the exact number is not on record here.

The subject of one data set is LRP6-Gαs interaction. Put plainly: Coimmunoprecipitation and Western blotting of LRP6-associated G proteins in HEK 293 cells. Format: cell-based, human. On the procedure: (§1) Cell Culture, Transfections, Coimmunoprecipitation, and Western Blotting Analysis. HEK293,UMR-106,C2C12, and MEF cells were maintained in Dulbecco's modified Eagle's medium (DMEM) with 10% fetal calf serum (FCS). Transfections were performed with Lipofectamine reagent (Invitrogen). Immunoprecipitations and Western blotting analysis of cell lysates were performed as described previously (37). Briefly, cells were lysed in immunoprecipitation buffer [50 mM tris-HCl (pH7.5), 150 mM NaCl, 1% Triton X-100, and 0.5% sodium deoxycholate containing protease inhibitors. The lysates were subjected to immunoprecipitation by incubation with the appropriate antibodies followed by absorption on protein G-Sepharose. The immunoprecipitates were separated by SDS-polyacrylamide gel electrophoresis (SDS-PAGE) and transferred onto a nitrocellulose membrane. Western blots were characterized with the SuperSignal West Femto Substrate system (Pierce, Thermo Fisher Scientific Inc.). Primary antibodies used for Western blotting analysis and immunoprecipitations included mouse antibody against the FLAG tag (M2, Sigma-Aldrich), rabbit antibody against VSVG (Covance), mouse antibody against the HA tag (16B12, Covance), rabbit antibody against PTH1R, (PRB-640P, Covance), rabbit antibodies against CREB and phosphorylated CREB (pCREB) (both from Upstate), and rabbit antibody against Gαs and mouse antibody against Gb1 (both from Santa Cruz Biotechnology).
In general terms: A western blot detects proteins with antibodies after separation by electrophoresis.

Another data set concerns LRP5-Gαs interaction. Put plainly: Coimmunoprecipitation and Western blotting of LRP5-associated Gαs in HEK 293 cells. Format: cell-based, human. Particulars: HEK 293 cells with PTH1R and HA-tagged LRP5, PTH(1-34) 50 nM. On the procedure:
as §1, with “Primary antibodies used for Western blotting analysis and immunoprecipitations included mouse antibody against the FLAG tag (M2, Sigma-Aldrich), rabbit antibody against VSVG (Covance), mouse antibody against the HA tag (16B12, Covance), rabbit antibody against PTH1R, (PRB-640P, Covance), rabbit antibodies against CREB and phosphorylated CREB (pCREB) (both from Upstate), and rabbit antibody against Gαs and mouse antibody against Gb1 (both from Santa Cruz Biotechnology).” left out

In a further data set the test system is cAMP production. The data set can be described thus: ICUE3 FRET biosensor, cAMP kinetics in live HEK 293 cells. The format is cell-based, human. The note with it: PTH(1-34) 50 nM. The source says:
Detection of the Temporal Dynamics of cAMP Signaling in Living Cells. The binding of cAMP to Epac induces a conformational change that liberates the catalytic domain of Epac from intrasubunit allosteric inhibition (42). A chimeric protein (ICUE3) generated by fusing the N terminus of a truncated form of Epac to enhanced CFP (ECFP) and the C terminus of Epac to citrine, an improved version of yellow fluorescent protein (YFP), was produced as previously described (43). Sandwiching these conformationally responsive elements of Epac between a FRET pair (citrine and ECFP) enables cAMP production and degradation to be monitored by detecting changes in FRET. Therefore, changes in cAMP could be monitored in real time in single live cells. Experiments were performed as previously described (41). […] The ratios of cyan-to-yellow emissions were then calculated at different time points and normalized by dividing all of the ratios by the emission ratio just before stimulation, thereby setting the basal emission ratio to 1. […] The fluorescence intensities of ECFP before (Fda) and after (Fd) citrine photobleaching and the equation E=1−(Fda/Fd) were used to calculate the FRET efficiency.

In data set [1] the test system is T1, Glutathione S-transferase (GST)-fused cytoplasmic domain of LRP6.
T1 sequence: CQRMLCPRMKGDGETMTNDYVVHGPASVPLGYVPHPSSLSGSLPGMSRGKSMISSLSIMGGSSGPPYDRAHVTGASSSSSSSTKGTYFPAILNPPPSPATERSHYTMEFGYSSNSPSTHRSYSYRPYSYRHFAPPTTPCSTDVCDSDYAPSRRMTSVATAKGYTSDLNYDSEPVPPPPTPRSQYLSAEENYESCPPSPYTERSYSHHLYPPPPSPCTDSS

Data set [2] has as its system GST-fused cytoplasmic domain of LRP6 with the GSK-3 site mutated (Ser1544 to Ala).
Data set [3] concerns GST-fused cytoplasmic domain of LRP6 with the PKA site mutated (Thr1548 to Ala).
In data set [4] the test system is Glutathione S-transferase (GST)-fused cytoplasmic domain of LRP5 [GST: P08515].
Chain of Glutathione S-transferase (GST)-fused cytoplasmic domain of LRP5 [GST: P08515] (P08515 whole entry, looked up, the tested form may be a part): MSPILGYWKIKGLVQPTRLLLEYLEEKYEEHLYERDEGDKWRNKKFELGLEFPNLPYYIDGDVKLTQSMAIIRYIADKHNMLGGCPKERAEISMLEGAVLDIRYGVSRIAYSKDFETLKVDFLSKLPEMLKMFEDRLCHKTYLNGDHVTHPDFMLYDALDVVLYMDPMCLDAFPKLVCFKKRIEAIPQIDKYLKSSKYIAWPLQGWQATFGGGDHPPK
In data set [5] the target is T2, VSVG-tagged LRP6 (wild type) (human, UniProt O75581 20-1613).
T2 construct: also called WT-LRP6; WT LRP6; not shown: VSVG tag
Put plainly: co-immunoprecipitation and Western blotting, HEK 293 cells.

[6] abbreviates: lysis buffer containing AlF4− (100 mM AlCl3, 10 mM NaF).

On to “5′-UGCCAAGAAGGCUGAGUCG-3′ (listed as RNA, chemistry not given here) [siRNA specific for axin]”, for which, in the data set on LRP6-Gαs interaction (knockdown of axin vs scrambled control siRNA, PTH(1-34) 50 nM), the “PTH-induced interaction between Gαs and LRP6” value is “not affected”.
In the case of `[F][Al-]([F])([F])[F]` [AlF4^−], in the data set with LRP6-Gαs interaction (setting [6]), the “interaction of LRP6 with Gαs” value is on record as “blocked” and the “interaction of LRP6 with Gβ1” value is listed as “blocked”.
“PTH(1-34): a C-terminal-truncated synthetic analog of PTH that has an anabolic effect on bone formation in humans (SVSEIQLMHNLGKHLNSMERVEWLRKKLQDVHNF)”: in the data set on LRP5-Gαs interaction, the “association of Gαs with LRP5” value is “did not enhance”. Besides, in the data set with cAMP production, the “time to plateau of the cyan-to-yellow emission ratio” value is 4 to 6 min and the “time to rapid change in the ratio of cyan-to-yellow emissions (indication of cAMP production)” value is ≤ 30 s. Further, the “interaction between Gαs and LRP6” value in the data set on LRP6-Gαs interaction (HEK 293 cells with PTH1R and VSVG-tagged LRP6, PTH(1-34) 50 nM, within S min of treatment, further enhanced at 30 min) is “enhanced”.
Consider Recombinant GSK-3, for which, in data set [1], the “in vitro kinase assay (PKA with cold ATP, then GSK-3 with [γ-32P]ATP)” value was “pretreatment with recombinant PKA enhanced the phosphorylation of LRP6 by GSK-3”. Further, the “in vitro kinase assay (sequential PKA and GSK-3)” value in data set [2] and in data set [3] was “Both mutants abolished the phosphorylation of LRP6 by GSK-3” in each case.
As to Recombinant catalytic subunit of PKA, the “in vitro kinase assay ([γ-32P]ATP, PhosphorImager)” value in data set [1] is “the intracellular domain of LRP6 (LRP6C) was phosphorylated by PKA”; in data set [3], “Only alteration of Thr^1548 abolished the phosphorylation of LRP6C by PKA”; in data set [4], “the intracellular domain of LRP5 was not phosphorylated”.

B1: Gαs (endogenous, from HEK 293 cell lysates) (other, human, UniProt P63092 2-394, looked up)
chain: GCLGNSKTEDQRNEEKAQREANKKIEKQLQKDKQVYRATHRLLLLGAGESGKSTIVKQMRILHVNGFNGEGGEEDPQAARSNSDGEKATKVQDIKNNLKEAIETIVAAMSNLVPPVELANPENQFRVDYILSVMNVPDFDFPPEFYEHAKALWEDEGVRACYERSNEYQLIDCAQYFLDKIDVIKQADYVPSDQDLLRCRVLTSGIFETKFQVDKVNFHMFDVGGQRDERRKWIQCFNDVTAIIFVVASSSYNMVIREDNQTNRLQEALNLFKSIWNNRWLRTISVILFLNKQDLLAEKVLAGKSKIEDYFPEFARYTTPEDATPEPGEDPRVTRAKYFIRDEFLRISTASGDGRHYCYPHFTCAVDTENIRRVFNDCRDIIQRMHLRQYELL
notes: Present in whole-cell lysate, so other proteins (Gβγ) may be associated with it; also called Gas; αs subunit of the G protein
With B1, the binding result in data set [5] is “binds”.
